Columns and labels:
[1] = target: T1, Epac (Homo sapiens, UniProt O95398); assay: Relative affinity for Epac (cAMP = 1), in vitro; format: binding; conditions: relative to cAMP = 1
T1 sequence (O95398 1-923): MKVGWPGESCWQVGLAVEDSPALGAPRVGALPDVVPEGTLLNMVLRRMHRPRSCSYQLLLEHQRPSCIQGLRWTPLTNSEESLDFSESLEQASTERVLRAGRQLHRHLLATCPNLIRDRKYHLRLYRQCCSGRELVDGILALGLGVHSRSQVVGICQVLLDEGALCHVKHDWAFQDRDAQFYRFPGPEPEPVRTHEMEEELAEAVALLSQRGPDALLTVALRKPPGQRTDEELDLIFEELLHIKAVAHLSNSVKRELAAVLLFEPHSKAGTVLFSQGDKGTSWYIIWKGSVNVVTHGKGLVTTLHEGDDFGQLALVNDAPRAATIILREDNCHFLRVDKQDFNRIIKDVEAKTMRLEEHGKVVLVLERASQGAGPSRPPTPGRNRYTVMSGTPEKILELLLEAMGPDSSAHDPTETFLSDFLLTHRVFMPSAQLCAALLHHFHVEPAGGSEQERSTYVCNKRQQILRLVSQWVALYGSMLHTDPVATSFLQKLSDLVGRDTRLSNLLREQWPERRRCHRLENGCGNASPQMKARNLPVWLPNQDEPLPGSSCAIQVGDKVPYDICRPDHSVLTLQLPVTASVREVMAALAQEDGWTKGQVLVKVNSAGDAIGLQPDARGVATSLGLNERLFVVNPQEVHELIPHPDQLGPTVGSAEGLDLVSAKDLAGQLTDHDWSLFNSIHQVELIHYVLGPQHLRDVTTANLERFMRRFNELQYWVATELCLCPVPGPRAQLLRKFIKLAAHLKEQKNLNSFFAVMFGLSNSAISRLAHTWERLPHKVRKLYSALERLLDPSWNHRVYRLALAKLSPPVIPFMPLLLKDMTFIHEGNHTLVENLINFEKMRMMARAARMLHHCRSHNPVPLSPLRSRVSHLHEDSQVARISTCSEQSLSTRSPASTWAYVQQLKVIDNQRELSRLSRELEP

[2] = target: T2, Epac1-ΔDEP1 (Homo sapiens, UniProt O95398); assay: In vitro GEF assay: Epac activity in the exchange reaction towards Rap (mantGDP-loaded Rap1b); format: biochemical; conditions: in vitro in the exchange reaction towards Rap; note: key: +++: activity comparible to I-007; ++: activity between I-007 and cAMP; +: activity comparible to cAMP; ±: activity less than cAMP
T2 sequence (O95398 191-923 limits assumed): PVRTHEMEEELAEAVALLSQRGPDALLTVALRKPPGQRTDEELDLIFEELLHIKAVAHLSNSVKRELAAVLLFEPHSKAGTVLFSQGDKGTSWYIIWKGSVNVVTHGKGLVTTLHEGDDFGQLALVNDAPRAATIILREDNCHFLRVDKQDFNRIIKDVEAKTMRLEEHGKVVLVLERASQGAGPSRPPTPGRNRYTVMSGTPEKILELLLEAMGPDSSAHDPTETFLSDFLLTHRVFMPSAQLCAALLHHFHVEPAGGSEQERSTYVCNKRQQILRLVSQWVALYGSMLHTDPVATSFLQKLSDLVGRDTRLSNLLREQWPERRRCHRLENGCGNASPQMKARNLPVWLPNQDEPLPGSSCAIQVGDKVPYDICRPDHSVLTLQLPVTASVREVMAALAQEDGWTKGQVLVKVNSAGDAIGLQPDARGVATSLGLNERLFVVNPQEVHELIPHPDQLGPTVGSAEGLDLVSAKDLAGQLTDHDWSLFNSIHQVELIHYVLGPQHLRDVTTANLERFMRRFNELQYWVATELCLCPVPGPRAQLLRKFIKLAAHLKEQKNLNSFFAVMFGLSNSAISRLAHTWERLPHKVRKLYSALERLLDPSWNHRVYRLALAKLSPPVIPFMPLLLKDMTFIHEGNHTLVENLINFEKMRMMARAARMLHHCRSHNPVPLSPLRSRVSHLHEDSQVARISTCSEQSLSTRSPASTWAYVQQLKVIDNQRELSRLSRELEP
Procedure: In vitro GEF assays were performed as described (3,16). […] Buffer conditions were 50 mM Tris pH7.4, 150 mM NaCl, 5% glycerol, 5 mM DTE, 60 μM GTP. Reactions were carried out in 96-well plates and measured in a Cary Eclipse from Varian Inc., using the manufacturers software.

[3] = system: PKAI; assay: Relative affinity for PKAI (cAMP = 1), in vitro; format: binding; conditions: relative to cAMP = 1
[4] = system: PKAII; assay: Relative affinity for PKAII (cAMP = 1), in vitro; format: binding; conditions: relative to cAMP = 1

Molecule	Relative affinity CAMP = 1 Epac [1]	Relative activity of Epac* [2]	Relative affinity CAMP = 1 PKAI [3]	Relative affinity CAMP = 1 PKAII [4]
2′-O-ethyladenosine-3′,5′-cyclic monophosphate [Compound I-008]	0.05	+	0.0043	–
2′-O-isobutyladenosine-3′,5′-cyclic monophosphate [Compound I-011]	0.017	±	0.0009	–
2′-O-methyladenosine-3′,5′-cyclic monophosphate [Compound I-005]	0.12	–	0.005	0.005
2′-O-n-butyladenosine-3′,5′-cyclic monophosphate [Compound I-010]	0.03	+	0.0008	–
2′-O-propyladenosine-3′,5′-cyclic monophosphate [Compound I-009]	0.03	+	0.001	–
2′-deoxyadenosine-3′,5′-cyclic monophosphate [Compound I-001]	0.0025	+	0.00013	0.000088
8-(2,3,5,6-tetrafluoro-phenylthio)-2′-O-methyladenosine-3′,5′-cyclic monophosphate [Compound I-124]	4.7	++	–	–
8-(2,4-dichloro-phenylthio)-2′-O-methyladenosine-3′,5′-cyclic monophosphate [Compound I-126]	3.1	++	–	–
8-(2-amino-ethylthio)-2′-O-methyladenosine-3′,5′-cyclic monophosphate [Compound I-118]	0.34	±	–	–
8-(2-hydroxy-ethylthio)-2′-O-methyladenosine-3′,5′-cyclic monophosphate [Compound I-116]	1.2	+	–	–
8-(3-methoxy-phenylthio)-2′-O-methyladenosine-3′,5′-cyclic monophosphate [Compound I-122]	2	+	–	–
8-(4-Chloro-phenylthio)-inosine-3′,5′-cyclic monophosphate [Compound I-139]	–	+	–	–
8-(4-chloro-phenylthio)-2′-(N,N-dimethyl)-carbamoyl-adenosine-3′,5′-cyclic monophosphate [Compound I-127]	<0.002	–	–	–
8-(4-chloro-phenylthio)-2′-O-methyladenosine-3′,5′-cyclic monophosphorothioate, Rp-isomer [Compound I-130]	0.06	±	–	–
8-(4-chloro-phenylthio)-2′-O-methyladenosine-3′,5′-cyclic monophosphorothioate, Sp-isomer [Compound I-134]	–	+	–	–
8-(4-chloro-phenylthio)-2′-deoxyadenosine-3′,5′-cyclic monophosphorothioate, Rp-isomer [Compound I-137]	–	+	–	–
8-(4-chloro-phenylthio)-2′-deoxyadenosine-3′,5′-cyclic monophosphorothioate, Sp-isomer [Compound I-138]	–	+	–	–

Molecule	Relative affinity CAMP = 1 Epac [1]	Relative activity of Epac* [2]	Relative affinity CAMP = 1 PKAI [3]	Relative affinity CAMP = 1 PKAII [4]
8-(4-hydroxy-phenylthio)-2′-O-methyladenosine-3′,5′-cyclic monophosphate [Compound I-125]	6.4	+++	–	–
8-(4-isopropyl-phenylthio)-2′-O-methyladenosine-3′,5′-cyclic monophosphate [Compound I-123]	4.8	++	–	–
8-(4-methyl-phenylthio)-2′-O-methyladenosine-3′,5′-cyclic monophosphate [Compound I-121]	5.1	+++	–	–
8-(benzimidazolyl-2-thio)-2′-O-methyladenosine-3′,5′-cyclic monophosphate [Compound I-115]	0.09	+	–	–
8-(benzothiazolyl-2-thio)-2′-O-methyladenosine-3′,5′-cyclic monophosphate [Compound I-120]	0.17	+	–	–
8-(pyridinyl-2-thio)-2′-O-methyladenosine-3′,5′-cyclic monophosphate [Compound I-119]	0.8	++	–	–
8-benzyloxy-2′-O-methyladenosine-3′,5′-cyclic monophosphate [Compound I-132]	0.18	+	–	–
8-bromo-2′-O-methyladenosine-3′,5′-cyclic monophosphorothioate, Rp-isomer [Compound I-129]	0.05	±	–	–
8-bromo-2′-O-methyladenosine-3′,5′-cyclic monophosphorothioate, Sp-isomer [Compound I-133]	–	+	–	–
8-bromo-2′-deoxyadenosine-3′,5′-cyclic monophosphorothioate, Rp-isomer [Compound I-135]	–	+	–	–
8-chloro-2′-O-methyladenosine-3′,5′-cyclic monophosphate [Compound I-141]	0.92	–	0.012	0.0002
8-cyclohexylamino-2′-deoxyadenosine-3′,5′-cyclic monophosphate [Compound I-140]	–	+	–	–
8-methoxy-2′-O-methyladenosine-3′,5′-cyclic monophosphate [Compound I-131]	0.36	+	–	–
8-phenylethylamino-2′-O-methyladenosine-3′,5′-cyclic monophosphate [Compound I-111]	0.08	±	–	–
O=[P@]1(O)OC[C@H]2O[C@@H](n3c(Sc4ccc(Cl)cc4)nc4c(Nc5ccccc5)ncnc43)C[C@@H]2O1 [Compound I-004, 8-(4-chloro-phenylthio)-N^6-phenyl-2′-deoxyadenosine-3′,5′-cyclic monophosphate]	0.5	–	0.03	0.26
CCSc1nc2c(N)ncnc2n1C1OC2COP(=O)(O)OC2C1OC (centres unmarked) [Compound I-117, 8-ethylthio-2′-O-methyladenosine-3′,5′-cyclic monophosphate]	1.8	+	–	–
Nc1ncnc2c1nc(Br)n2[C@H]1C[C@@H]2O[P@@](=O)(S)OC[C@H]2O1 [Compound I-136, 8-bromo-2′-deoxyadenosine-3′,5′-cyclic monophosphorothioate, Sp-isomer]	–	+	–	–
